From US5206148A, “Method for assaying aliphatic alcohol, aliphatic aldehyde or ω-carboxylic acid derivatives thereof” (Asahi Kasei Kogyo Kabushiki Kaisha, priority 1991, dated 1993)

What was measured:
Format in all cases: biochemical, Streptomyces sp. AC 8205
ω-carboxyalcohol oxidase [1] = experiment: Effects of reagents (detergents and metal ions) on enzyme activity; settings: None = 100
Protocol: (§1) An enzyme solution (25 μl) was added to the above mixture (0.5 ml), followed by incubation at 37° C. for exactly 10 mins., whereupon sodium dodecyl sulfate (SDS) (0.5 ml) was added thereto, then absorbance at 545 nm was measured. One unit of enzyme is defined by the activity which generates 1 μmole of hydrogen peroxide per minute.
The effects of various detergent and metal ions are shown in Table 4, in which the listed reagents show no significant effect on the enzyme. Activities of the enzyme are measured by adding each listed detergent and metal ion to the assay method described above at item 1.

ω-carboxyalcohol oxidase [2] = experiment: Substrate specificity of ω-carboxyalcohol oxidase (peroxidase/4-aminoantipyrine H2O2 assay); design: Relative Activity (%): concentration or dose not given beside the values; settings: for Substrate specificity: statement in words, from Table 2; for Relative Activity (%): substrate in place of 12-hydroxydodecanoic acid, activity on 12-hydroxydodecanoic acid defined as 100, pH 7.5, 37° C., 10 mins.
Protocol: as §1
Assay method: In the assay method illustrated at item 1. hereinabove, 12-hydroxydodecanoic acid was replaced by the substrates indicated in Table 2, and the resulting relative activities were produced, defining the activity on 12-hydroxydodecanoic acid as 100.

ω-carboxyalcohol oxidase [3] = experiment: Utilization of coenzyme (absorbance at 340 nm); settings: for A340nm: 37° C., one unit of enzyme, 12-hydroxydodecanoic acid; for Utilization of coenzyme: statement in words
Protocol: One unit of enzyme is added to the reaction mixture (2.0 ml) hereinabove and the absorbance at 340 nm and 37° C. is continuously measured.

## C[C@H](CCC(=O)O)[C@H]1CC[C@H]2[C@@H]3[C@H](O)C[C@@H]4C[C@H](O)CC[C@]4(C)[C@H]3C[C@H](O)[C@]12C [Cholate]
ω-carboxyalcohol oxidase [1]; reagent 10 mM
  Relative Activity (%): 94.9%

## Cl.N [NH4 Cl]
ω-carboxyalcohol oxidase [1]; reagent 100 mM
  Relative Activity (%): 89.0%

## CCCCCCO [H3 C--(CH2)5 --OH]
ω-carboxyalcohol oxidase [2]
  Substrate specificity: has substrate specificity
  Relative Activity (%): 88.5%

## O=C(O)CCCCCCCCCCCO [HO2 C--(CH2)11 --OH, 12-hydroxydodecanoic acid]
ω-carboxyalcohol oxidase [2]
  Substrate specificity: has substrate specificity
  Relative Activity (%): 100%

## CCCCO [H3 C--(CH2)3 --OH]
ω-carboxyalcohol oxidase [2]
  Relative Activity (%): 76.1%

## [Cl][Mn][Cl] [MnCl2]
ω-carboxyalcohol oxidase [1]; reagent 1 mM
  Relative Activity (%): 102.4%

## CCCCCCCCCCCCCCCCO [H3 C--(CH2)15 --OH]
ω-carboxyalcohol oxidase [2]
  Relative Activity (%): 60.2%

## CCCCCCCCC=CCCCCCCCCO [H3 C--(CH2)7 --CH=CH--(CH2)8 --OH]
ω-carboxyalcohol oxidase [2]
  Relative Activity (%): 59.1%

## CCCCCCCCCCO [H3 C--(CH2)9 --OH]
ω-carboxyalcohol oxidase [2]
  Substrate specificity: has substrate specificity
  Relative Activity (%): 87.6%

## CCCO [H3 C--(CH2)2 --OH]
ω-carboxyalcohol oxidase [2]
  Relative Activity (%): 6.6%

## [Cl-].[Cl-].[Mg+2] [MgCl2]
ω-carboxyalcohol oxidase [1]; reagent 1 mM
  Relative Activity (%): 98.2%

## [Cl-].[Na+] [NaCl]
ω-carboxyalcohol oxidase [1]; reagent 100 mM
  Relative Activity (%): 95.1%

## CCCCCCCCCCCCCCO [H3 C--(CH2)13 --OH]
ω-carboxyalcohol oxidase [2]
  Relative Activity (%): 76.1%

## C[C@H](CCC(=O)O)[C@H]1CC[C@H]2[C@@H]3CC[C@@H]4C[C@H](O)CC[C@]4(C)[C@H]3C[C@H](O)[C@]12C [Deoxycholate]
ω-carboxyalcohol oxidase [1]; reagent 10 mM
  Relative Activity (%): 94.9%

## CCO [H3 C--CH2 --OH, ethanol]
ω-carboxyalcohol oxidase [2]
  Substrate specificity: no specificity
  Relative Activity (%): 0%

## O=C(O)CCCCCCCCCCCCCCCO [HO2 C--(CH2)15 --OH, 16-hydroxy hexadecanoic acid]
ω-carboxyalcohol oxidase [2]
  Relative Activity (%): 65.5%

## [Cl-].[K+] [KCl]
ω-carboxyalcohol oxidase [1]; reagent 100 mM
  Relative Activity (%): 97.6%

## NC(=O)c1ccc[n+]([C@@H]2O[C@H](COP(=O)([O-])OP(=O)(O)OC[C@H]3O[C@@H](n4cnc5c(N)ncnc54)[C@H](OP(=O)(O)O)[C@@H]3O)[C@@H](O)[C@H]2O)c1 [NADP]
ω-carboxyalcohol oxidase [3]; 0 min.
  A340nm: 0.046
ω-carboxyalcohol oxidase [3]; 2 mins.
  A340nm: 0.047
ω-carboxyalcohol oxidase [3]; 4 mins.
  A340nm: 0.045
ω-carboxyalcohol oxidase [3]; 6 mins.
  A340nm: 0.046
ω-carboxyalcohol oxidase [3]; 8 mins.
  A340nm: 0.046
ω-carboxyalcohol oxidase [3]; 10 mins.
  A340nm: 0.047
ω-carboxyalcohol oxidase [3]
  Utilization of coenzyme: No utilization

## NC(=O)c1ccc[n+]([C@@H]2O[C@H](COP(=O)([O-])OP(=O)(O)OC[C@H]3O[C@@H](n4cnc5c(N)ncnc54)[C@H](O)[C@@H]3O)[C@@H](O)[C@H]2O)c1 [NAD]
ω-carboxyalcohol oxidase [3]; 0 min.
  A340nm: 0.062
ω-carboxyalcohol oxidase [3]; 2 mins.
  A340nm: 0.061
ω-carboxyalcohol oxidase [3]; 4 mins.
  A340nm: 0.060
ω-carboxyalcohol oxidase [3]; 6 mins.
  A340nm: 0.062
ω-carboxyalcohol oxidase [3]; 8 mins.
  A340nm: 0.061
ω-carboxyalcohol oxidase [3]; 10 mins.
  A340nm: 0.061
ω-carboxyalcohol oxidase [3]
  Utilization of coenzyme: No utilization

## CCCCCCCCCCCCO [H3 C--(CH2)11 --OH]
ω-carboxyalcohol oxidase [2]
  Substrate specificity: has substrate specificity
  Relative Activity (%): 86.1%

## CCCCCCCCO [H3 C--(CH2)7 --OH]
ω-carboxyalcohol oxidase [2]
  Substrate specificity: has substrate specificity
  Relative Activity (%): 88.5%

## Triton X-100
ω-carboxyalcohol oxidase [1]; reagent 1.0%
  Relative Activity (%): 93.1%

## CO [H3 C--OH, methanol]
ω-carboxyalcohol oxidase [2]
  Substrate specificity: no specificity
  Relative Activity (%): 0%

## OCC(O)CO [glycerol]
ω-carboxyalcohol oxidase [2]
  Substrate specificity: no specificity
  Relative Activity (%): 0%

## [Ca+2].[Cl-].[Cl-] [CaCl]
ω-carboxyalcohol oxidase [1]; reagent 1 mM
  Relative Activity (%): 97.0%
